According to patent publication US11351173B2, “Substituted pyrrolo[1,2-a]pyrimidines and their use in the treatment of medical disorders” (Bial—R&D Investments, S.A., priority 2014, dated 2022):
≈ marks a conversion by molar mass, not a printed value.

Columns and labels:
[1] = Compound solubility in water; conditions: water; for solubility: Compound Solubility in Water
[2] = biological target: T1, glucocerebrosidase (Gcase) (Homo sapiens, UniProt P04062); assay: Glucocerebrosidase (Gcase) activation assay, 4-methylumbelliferyl-beta-D-glucopyranoside substrate, fluorescence readout; type: biochemical; conditions: for activation at 0.1 µM / Percent Gcase Activation, 0.1 μM Test Compound: test compound at 0.1 μM; for activation at 0.1 µM: read-out: Percent Gcase Activation, 0.1 μM Test Compound; for activation at 1 µM / Percent Gcase Activation, 1 μM Test Compound: test compound at 1.0 μM; for activation at 1 µM: read-out: Percent Gcase Activation, 1 μM Test Compound
T1 construct: micellar solution containing 10 nM GCase and 100 nM saposin C
T1 sequence (P04062 40-536): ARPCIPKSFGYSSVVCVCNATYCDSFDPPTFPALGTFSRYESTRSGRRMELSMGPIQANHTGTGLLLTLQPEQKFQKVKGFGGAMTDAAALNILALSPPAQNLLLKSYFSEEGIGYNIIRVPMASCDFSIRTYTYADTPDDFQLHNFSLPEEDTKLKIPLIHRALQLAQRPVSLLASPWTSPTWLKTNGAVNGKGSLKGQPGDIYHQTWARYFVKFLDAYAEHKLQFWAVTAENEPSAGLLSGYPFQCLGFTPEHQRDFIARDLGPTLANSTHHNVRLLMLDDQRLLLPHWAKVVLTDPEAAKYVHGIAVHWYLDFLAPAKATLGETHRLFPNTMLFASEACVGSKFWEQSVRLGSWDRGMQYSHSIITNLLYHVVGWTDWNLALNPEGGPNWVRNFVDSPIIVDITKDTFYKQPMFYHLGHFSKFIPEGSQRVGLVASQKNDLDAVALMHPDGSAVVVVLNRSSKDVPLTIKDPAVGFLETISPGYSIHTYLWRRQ
Procedure: The ability of exemplary compounds to activate glucocerebrosidase (Gcase) was measured.
A 484 μL aliquot of a 1.0 mg/mL solution of phosphatidylserine (PS) (Sigma P7769) in chloroform was evaporated under a stream of nitrogen for 1 hour. The lipid film was dissolved over 4 minutes of vigorous vortexing in 40 mL of 176 mM K2HPO4/50 mM citric acid (pH 4.7) containing 7.5 μL of triton X-100, resulting in a mixed micellar preparation with a composition of 0.32 mM triton and 0.37 mol % PS. 4-Methylumbelliferyl-beta-D-glucopyranoside (ACROS-337025000) was dissolved in the micellar solution to a final concentration of 2 mM for use as the reaction substrate.
Test compounds were diluted to the desired concentrations with dimethylsulfoxide (DMSO) from 10 mM stocks, and 0.41 μL of the DMSO compound mixture was added to 100 μL of micellar solution containing 10 nM GCase and 100 nM saposin C (Enzo ALX-201-262-C050). Pre-incubation was allowed to occur for 30 minutes at room temperature, after which the reaction was initiated by combining 25 μL of substrate solution with 25 μL of compound/GCase/saposin mixture. The reaction proceeded for 15 minutes at room temperature and was stopped by adding 150 μL of 1M glycine, pH 12.5. The endpoint of the reaction was monitored by measuring fluorescence intensity (excitation: 365 nm; emission: 440 nm) on a SpectraMax i3 instrument (Molecular Devices). Test compounds were screened at 1.0 and 0.1 μM final concentration, and subsequent 8-point dose response curves were obtained using 3-fold dilutions from a maximum final concentration of 5 μM.

Compound | solubility [1] [µg/mL] | activation at 0.1 µM [2] [%] | activation at 1 µM [2] [%] | Compound Solubility in Water [1] [µg/mL] | Percent Gcase Activation, 0.1 μM Test Compound [2] | Percent Gcase Activation, 1 μM Test Compound [2] | solubility ([1]; in water) [µg/mL]
Cc1cc(C)n2ccc(C(=O)NC3CCCc4cnccc43)c2n1 (stereo not drawn) [III-151] | 16.2 (≈ 50.6 µM) | < 10 | < 30 |  |  |  | 
Cc1cc(O)n2ccc(C(=O)Nc3ccc(-c4cocn4)cc3)c2n1 [III-55] | 1.8 (≈ 5.38 µM) | < 10 | < 30 |  |  |  | 
Cc1cc(C)n2ccc(C(=O)N[C@H]3CC[C@H](OC4CCC4)CC3)c2n1 [III-101] | 8.5 (≈ 24.9 µM) | > 20 | > 60 |  |  |  | 
Cc1cc(Cl)nc2c(C(=O)Nc3ccc(-c4cocn4)cc3)ccn12 [III-38] | 0.3 (≈ 0.85 µM) | > 20 | 30 to 60 |  |  |  | 
COc1cc(C)n2ccc(C(=O)Nc3ccc(-c4cocn4)cc3)c2n1 [III-52] | 0.1 (≈ 0.287 µM) | 10 to 20 | 30 to 60 |  |  |  | 
Cc1cc(C)n2ccc(C(=O)NC3CCCC34CCCCO4)c2n1 (stereo not drawn) [III-139] |  |  |  | 1.4 | * (less than 10% Gcase activation) | +++ (Gcase activation greater than 60%) | 
Cc1cc(C)n2ccc(C(=O)Nc3cccc4c3CCC4)c2n1 [III-220] |  | > 20 | > 60 |  |  |  | 0.2 (≈ 0.655 µM)
COc1ccccc1C(C)(C)NC(=O)c1ccn2c(C)cc(C)nc12 [III-233] |  | > 20 | > 60 |  |  |  | 2.1 (≈ 6.22 µM)
CCC(C)(NC(=O)c1ccn2c(C)cc(C)nc12)c1ccccc1 (stereo not drawn) [III-287] |  | > 20 | > 60 |  |  |  | 1.6 (≈ 4.98 µM)
COc1cc(NC(=O)c2ccn3c(C)cc(C)nc23)ccc1-c1cnco1 [III-87] | 0.1 (≈ 0.276 µM) | > 20 | 30 to 60 |  |  |  | 
Cc1cc(C)n2ccc(C(=O)NC3CCC4OCOC4C3)c2n1 (stereo not drawn) [III-229] |  | < 10 | < 30 |  |  |  | 28.5 (≈ 90.4 µM)
Cc1cc(C)n2ccc(C(=O)NC3CCc4ccccc43)c2n1 (stereo not drawn) [III-216] |  | > 20 | > 60 |  |  |  | 1.8 (≈ 5.89 µM)
Cc1cc(C)n2ccc(C(=O)Nc3ccc(Cl)c(COc4cccnc4)c3)c2n1 [III-279] |  |  |  |  | *** (greater than 20% Gcase activation) | +++ (Gcase activation greater than 60%) | < 0.1
CO[C@H]1CC[C@H](C(C)(C)NC(=O)c2ccn3c(C)cc(C)nc23)CC1 [III-236] |  | 10 to 20 | > 60 |  |  |  | 9.9 (≈ 28.8 µM)
Cc1cc(C2CC2)n2ccc(C(=O)N[C@H]3CC[C@H](OCCCCC(F)(F)F)CC3)c2n1 [III-47] | 0.3 (≈ 0.686 µM) | < 10 | > 60 |  |  |  | 
CCCCO[C@H]1CC[C@H](NC(=O)c2ccn3c(C)cc(C)nc23)CC1 [III-26] | 18.1 (≈ 52.7 µM) | > 20 | > 60 |  |  |  | 
Cc1cc(C)n2ccc(C(=O)NC3CCOc4ccc(F)c(F)c43)c2n1 (stereo not drawn) [III-172] | 1.5 (≈ 4.2 µM) | > 20 | > 60 |  |  |  | 
Cc1cc(C)n2ccc(C(=O)N[C@H]3CCc4ccccc43)c2n1 [III-217] |  | > 20 | > 60 |  |  |  | 0.2 (≈ 0.655 µM)
[2H]c1c(C([2H])([2H])[2H])nc2c(C(=O)NC3(C)CCOc4ccccc43)cc([2H])n2c1C([2H])([2H])[2H] (stereo not drawn) [III-159] | 4.9 (≈ 14.3 µM) | > 20 | > 60 |  |  |  | 
Cc1cc(C)n2ccc(C(=O)Nc3ccc4c(c3)CCC4)c2n1 [III-13] |  |  |  | 0.06 | *** (greater than 20% Gcase activation) | +++ (Gcase activation greater than 60%) | 
CCCCO[C@H]1CC2CCC(C1)[C@H]2NC(=O)c1ccn2c(C)cc(C)nc12 [III-182] | 0.6 (≈ 1.62 µM) | > 20 | > 60 |  |  |  | 
CCCCO[C@H]1CC[C@H](NC(=O)c2ccn3c(C)cc(C(F)F)nc23)CC1 [III-67] | 4.7 (≈ 12.4 µM) | > 20 | > 60 |  |  |  | 
